In general, IC50 refers to the concentration that inhibits the measured activity by half.

Series [1] has as its system HCV replicon (5-2 Luc replicon-comprising cells). The series can be described thus: HCV replicon assay (luciferase). The series is classed as cell-based, Hepatitis C virus. As to conditions: Hepatitis C virus; 5-2 Luc replicon cells, luciferase readout; read-out: Replicon IC50. The essentials:
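Readout: IC50 from a 50% drop in luciferase signal (Bright-Glo, luminometer), scored + (≤10 μM) or − (>10 μM). Compounds added at various concentrations to 5-2 Luc replicon cells (Huh7 background), pre-incubated 24 h, then incubated 24 h more before reading.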
On the technique in general: In antiviral work, replicon cells carry a viral genome segment that copies itself.

Series [2] can be described thus: Cytotoxicity assay (Cell Titer Glo). As to conditions: human; 48 hr with compound, ATP-dependent Cell Titer Glo assay; read-out: IC50 in cytotoxicity assay (number of viable cells). It is filed as cell-based. The procedure: Compounds 67, 167, 169, 13, 1, 145, 29, 119, 63, 31, 39, 103, 123, 121, 97, 129, 79, 111, 85, 89, 109, 127, 131, 95, 47, 57, 69, 165, 161, 163, 3, 137, 15, 141, 41, 53, 33, 113, 93, 105, 77, 91, 81, 83, 35, 27, 65, 7, 135, 51, 139, 51, 49, 143, 5, 149, 11, 37, 21, 45, 61, 75, 23, 125, 73, 43, 171 and 101 were tested in a cytotoxicity assay with liver cells including an HCV replicon (5-2 Luc cells, 9–13 cells or Huh-7 cells). In the assay, cells were seeded onto 96-well plates (approx. 7500 cells/well in a volume of 90 μl) and grown for 24 hr at 37° C. On day 2, various concentrations of test compound (in a volume of 10 μl) were added to the wells and the cells were grown for an additional 48 hr at 37° C. On day 4, an ATP-dependent R-Luciferase assay (Cell Titer Glo assay) was performed to determine the number of viable cells.
(In ATP-based viability assays light output follows the ATP content of the culture.)

As to `O=C(Nc1cccc(-c2cc(-c3c(F)cccc3C(F)(F)F)no2)c1)C(Cl)Cl` [Compound 41, 2,2-Dichloro-N-[3-[3-(2-fluoro-6-trifluoromethylphenyl)-5-isoxazolyl]phenyl]Acetamide], in series [1], the IC50 was less than 10 µM. Moreover, in series [2], the IC50 at 48 h is greater than 10 µM.
With `O=C(Nc1cccc(-c2cc(-c3c(F)cccc3I)no2)c1)C(Cl)Cl` [Compound 49, 2,2-Dichloro-N-[3-[3-(2-fluoro-6-iodophenyl)-5-isoxazolyl]phenyl]Acetamide], in series [1], the IC50 was less than 10 µM. In addition, the IC50 at 48 h in series [2] was greater than 10 µM.
Turning to `O=C(Nc1cccc(-c2cc(-c3c(Cl)cccc3Cl)no2)c1)C(Br)Br` [Compound 29, 2,2-Dibromo-N-[3-[3-(2,6-dichlorophenyl)-5-isoxazolyl]phenyl]Acetamide], the IC50 in series [1] is less than 10 µM. Further, the IC50 at 48 h in series [2] is greater than 10 µM.
With `CC(C)c1cccc(C(C)C)c1-c1cc(-c2cccc(NC(=O)C(Cl)Cl)c2)on1` [Compound 121, 2,2-Dichloro-N-[3-[3-(2,6-diisopropylphenyl)-5-isoxazolyl]phenyl]Acetamide], the IC50 in series [1] is less than 10 µM. Moreover, in series [2], the IC50 at 48 h was greater than 10 µM.
For `O=C(Nc1cccc(-c2cc(-c3c(Cl)cccc3Cl)no2)c1)C(F)F` [Compound 145, 2,2-Difluoro-N-[3-[3-(2,6-dichlorophenyl)-5-isoxazolyl]phenyl]Acetamide], the IC50 in series [1] was greater than 10 µM. In addition, the IC50 at 48 h in series [2] is greater than 10 µM.
For the molecule `O=C(Nc1cccc(-c2cc(-c3c(Cl)cccc3C3CCCCC3)no2)c1)C(Cl)Cl` [Compound 111, 2,2-Dichloro-N-[3-[3-(2-chloro-6-cyclohexylphenyl)-5-isoxazolyl]phenyl]Acetamide], in series [1], the IC50 is less than 10 µM. For the same molecule, the IC50 at 48 h in series [2] is greater than 10 µM.
For the molecule `Cc1ccc(F)c(-c2cc(-c3cccc(NC(=O)C(Cl)Cl)c3)on2)c1F` [Compound 149, 2,2-Dichloro-N-[3-[3-(2,6-difluoro-3-methylphenyl)-5-isoxazolyl]phenyl]Acetamide], in series [1], the half-inhibitory concentration (IC50) was greater than 10 µM. The IC50 at 48 h in series [2] is greater than 10 µM.
For the molecule `CC(C)Oc1ccccc1-c1cc(-c2cccc(NC(=O)C(Cl)Cl)c2)on1` [Compound 119, 2,2-Dichloro-N-[3-[3-(2-isopropyloxyphenyl)-5-isoxazolyl]phenyl]Acetamide], the IC50 in series [1] was less than 10 µM. For the same molecule, the IC50 at 48 h in series [2] was greater than 10 µM.
In the case of `CC(C)c1ccccc1-c1cc(-c2cccc(NC(=O)C(Cl)Cl)c2)on1` [Compound 63, 2,2-Dichloro-N-[3-[3-(2-isopropylphenyl)-5-isoxazolyl]phenyl]Acetamide], the half-inhibitory concentration (IC50) in series [1] was less than 10 µM. Further, the IC50 at 48 h in series [2] is greater than 10 µM.
Regarding `Cc1cccc(C)c1-c1cc(-c2cccc(NC(=O)C(Cl)Cl)c2)on1` [Compound 47, 2,2-Dichloro-N-[3-[3-(2,6-dimethylphenyl)-5-isoxazolyl]phenyl]Acetamide], in series [1], the IC50 was less than 10 µM. In series [2], the IC50 at 48 h was greater than 5 µM.
For `O=C(Nc1cccc(-c2cc(-c3c(Cl)cccc3C3CCCC3)no2)c1)C(Cl)Cl` [Compound 97, 2,2-Dichloro-N-[3-[3-(2-chloro-6-cyclopentylphenyl)-5-isoxazolyl]phenyl]Acetamide], the IC50 in series [1] is less than 10 µM. For the same molecule, the IC50 at 48 h in series [2] is greater than 10 µM.
As for `O=C(Nc1cccc(-c2cc(-c3ccccc3C(F)(F)F)no2)c1)C(Cl)Cl` [Compound 33, 2,2-Dichloro-N-[3-[3-(2-trifluoromethylphenyl)-5-isoxazolyl]phenyl]Acetamide], the IC50 in series [1] is less than 10 µM. The IC50 at 48 h in series [2] is greater than 10 µM.
In the case of `COc1cccc(C(F)(F)F)c1-c1cc(-c2cccc(NC(=O)C(Cl)Cl)c2)on1` [Compound 77, 2,2-Dichloro-N-[3-[3-(2-methoxy-6-trifluoromethylphenyl)-5-isoxazolyl]phenyl]Acetamide], the IC50 in series [1] is less than 10 µM. Also, the IC50 at 48 h in series [2] was greater than 10 µM.
Take `CC(C)c1cccc(Cl)c1-c1cc(-c2cccc(NC(=O)C(Cl)Cl)c2)on1` [Compound 39, 2,2-Dichloro-N-[3-[3-(2-chloro-6-isopropylphenyl)-5-isoxazolyl]phenyl]Acetamide]: the IC50 in series [1] was less than 10 µM. In series [2], the IC50 at 48 h is greater than 10 µM.
On to `Cc1ccc(Cl)c(-c2cc(-c3cccc(NC(=O)C(Cl)Cl)c3)on2)c1F` [Compound 51, 2,2-Dichloro-N-[3-[3-(6-chloro-2-fluoro-3-methylphenyl)-5-isoxazolyl]phenyl]Acetamide], for which the IC50 in series [1] was less than 10 µM. Moreover, the IC50 at 48 h in series [2] was greater than 10 µM.
As to `O=C(Nc1cccc(-c2cc(-c3ccccc3OC(F)(F)F)no2)c1)C(Cl)Cl` [Compound 113, 2,2-Dichloro-N-[3-[3-(2-trifluoromethoxyphenyl)-5-isoxazolyl]phenyl]Acetamide], the IC50 in series [1] was less than 10 µM. For the same molecule, the IC50 at 48 h in series [2] was greater than 10 µM.
As to `O=C(Nc1cccc(-c2cc(-c3c(C4CC4)cccc3C(F)(F)F)no2)c1)C(Cl)Cl` [Compound 89, 2,2-Dichloro-N-[3-[3-(2-cyclopropyl-6-trifluoromethylphenyl)-5-isoxazolyl]phenyl]Acetamide], the IC50 in series [1] was less than 10 µM. The concentration for half-maximal inhibition (IC50) at 48 h in series [2] is greater than 10 µM.
In the case of `COc1cccc(Cl)c1-c1cc(-c2cccc(NC(=O)C(Cl)Cl)c2)on1` [Compound 81, 2,2-Dichloro-N-[3-[3-(2-chloro-6-methoxyphenyl)-5-isoxazolyl]phenyl]Acetamide], the half-maximal inhibitory concentration (IC50) in series [1] was less than 10 µM. Moreover, in series [2], the IC50 at 48 h was greater than 10 µM.
With `CCCCc1cccc(Cl)c1-c1cc(-c2cccc(NC(=O)C(Cl)Cl)c2)on1` [Compound 103, 2,2-Dichloro-N-[3-[3-(2-chloro-6-n-butylphenyl)-5-isoxazolyl]phenyl]Acetamide], the IC50 in series [1] is less than 10 µM. The IC50 at 48 h in series [2] was greater than 10 µM.
In the case of `O=C(O)c1ccc(Cl)c(-c2cc(-c3cccc(NC(=O)C(Cl)Cl)c3)on2)c1Cl` [Compound 139, 2,2-Dichloro-N-[3-[3-(3-carboxy-2,6-dichlorophenyl)-5-isoxazolyl]phenyl]Acetamide], the IC50 in series [1] is greater than 10 µM. The IC50 at 48 h in series [2] was greater than 10 µM.
With `O=C(Nc1cccc(-c2cc(-c3c(F)ccc(F)c3Cl)no2)c1)C(Cl)Cl` [Compound 53, 2,2-Dichloro-N-[3-[3-(2-chloro-3,6-difluorophenyl)-5-isoxazolyl]phenyl]Acetamide], in series [1], the IC50 is less than 10 µM. For the same molecule, the IC50 at 48 h in series [2] was greater than 10 µM.
In the case of `COc1cccc(C)c1-c1cc(-c2cccc(NC(=O)C(Cl)Cl)c2)on1` [Compound 91, 2,2-Dichloro-N-[3-[3-(2-methoxy-6-methylphenyl)-5-isoxazolyl]phenyl]Acetamide], in series [1], the IC50 is less than 10 µM. Further, the IC50 at 48 h in series [2] is greater than 10 µM.
As to `Cc1ccc(-c2cc(-c3c(Cl)cccc3Cl)no2)cc1NC(=O)C(Cl)Cl` [Compound 165, 2,2-Dichloro-N-[3-[3-(2,6-dichlorophenyl)-5-isoxazolyl]-6-methylphenyl]Acetamide], in series [1], the IC50 was greater than 10 µM. For the same molecule, the IC50 at 48 h in series [2] was greater than 10 µM.
With `CN(C)c1cc(Cl)c(-c2cc(-c3cccc(NC(=O)C(Cl)Cl)c3)on2)c(Cl)c1` [Compound 65, 2,2-Dichloro-N-[3-[3-(2,6-dichloro-4-dimethylaminophenyl)-5-isoxazolyl]phenyl]Acetamide], in series [1], the IC50 was less than 10 µM. Further, the IC50 at 48 h in series [2] was greater than 10 µM.
For the molecule `O=C(Nc1cccc(-c2cc(-c3ccccc3C3CCCC3)no2)c1)C(Cl)Cl` [Compound 129, 2,2-Dichloro-N-[3-[3-(2-cyclopentylphenyl)-5-isoxazolyl]phenyl]Acetamide], the IC50 in series [1] was less than 10 µM. In addition, in series [2], the IC50 at 48 h was greater than 10 µM.
For the molecule `O=C(Nc1cccc(-c2cc(-c3c(O)cccc3C(F)(F)F)no2)c1)C(Cl)Cl` [Compound 35, 2,2-Dichloro-N-[3-[3-(2-hydroxy-6-trifluoromethylphenyl)-5-isoxazolyl]phenyl]Acetamide], in series [1], the IC50 was less than 10 µM. Moreover, in series [2], the IC50 at 48 h is greater than 10 µM.
On the same counts, the results for `O=C(Nc1cccc(-c2cc(-c3ccccc3OC(F)F)no2)c1)C(Cl)Cl` [Compound 45, 2,2-Dichloro-N-[3-[3-(2-difluoromethoxyphenyl)-5-isoxazolyl]phenyl]Acetamide] are less than 10 µM and greater than 10 µM.
Consider `CN1CCN(c2cccc(C(F)(F)F)c2-c2cc(-c3cccc(NC(=O)C(Cl)Cl)c3)on2)CC1` [Compound 109, 2,2-Dichloro-N-[3-[3-[2-trifluoromethyl-6-(4-methylpiperazino)phenyl]-5-isoxazolyl]-phenyl]Acetamide], for which the IC50 in series [1] was less than 10 µM. Further, in series [2], the IC50 at 48 h was greater than 10 µM.

These data come from patent US7115642B2, “Substituted diphenyl isoxazoles, pyrazoles and oxadiazoles useful for treating HCV infection” (priority 2003, dated 2006).
